According to publication PMC12285096, “Tirzepatide mitigates Stroke-Induced Blood-Brain barrier disruption by modulating Claudin-1 and C/EBP-α pathways” (Molecular Medicine, 2025):

Columns and labels:
[1] = system: Claudin-1; test: Claudin-1 expression in mouse cortex (RT-PCR, immunostaining); type: in vivo; conditions: for Claudin-1 levels (mRNA): C/EBP-α experiment, Fig. 5C; for Claudin-1 expressions in cortex tissue (mRNA, protein by immunostaining): Fig. 3A, B
Procedure: Mouse brain cortex samples were traditionally fixed in a 10% formaldehyde solution, embedded in paraffin, sectioned, and then dehydrated. Endogenous peroxidase activity was quenched by incubating the sections with a 3% hydrogen peroxide solution for 30 min. Antigen retrieval was carried out using ethylenediaminetetraacetic acid (EDTA) under pressure. After sealing for 30 min, slides were incubated overnight at 4 °C with primary antibodies specific for Claudin-1 (Abcam, USA), diluted at a ratio of 1:400. This incubation period was extended to ensure thorough binding. Subsequently, the slides were washed and incubated with secondary antibodies (1:400, Abcam, USA) for 15 min. Finally, the slides were developed using a DAB chromogenic substrate system, counterstained with hematoxylin, differentiated with an ethanol solution containing hydrochloric acid, subjected to a bluing step with running tap water, rinsed with deionized water, dehydrated, and covered with a protective cover slip. Visual documentation was obtained using a microscope (Zeiss, Germany). 1 mL of RNAiso Plus solution was added to the pulverized rodent cerebral cortex samples or cellular material. Following complete homogenization, the liquid fraction was extracted after high-speed centrifugation. The overall RNA pellet was then washed with 75% ethanol, and the RNA was subsequently harvested for reverse transcription. These specific procedures were carried out in accordance with the instructions provided in the PrimeScript RT reagent Kit (TaKaRa, Japan). Real-time PCR detection was performed following the experimental protocols of the Applied Biosystems 7300 instrument. Gene expression levels were determined based on cycle threshold counts.

[2] = system: C/EBP-α; test: C/EBP-α expression in mouse cortex (RT-PCR, western blot); type: in vivo; conditions: Fig. 4A, B
Procedure: 1 mL of RNAiso Plus solution was added to the pulverized rodent cerebral cortex samples or cellular material. Following complete homogenization, the liquid fraction was extracted after high-speed centrifugation. The overall RNA pellet was then washed with 75% ethanol, and the RNA was subsequently harvested for reverse transcription. These specific procedures were carried out in accordance with the instructions provided in the PrimeScript RT reagent Kit (TaKaRa, Japan). Real-time PCR detection was performed following the experimental protocols of the Applied Biosystems 7300 instrument. Gene expression levels were determined based on cycle threshold counts.
Claudin-1 and C/EBP-α were analyzed in brain homogenates (right hemisphere: Sham, MCAO, MCAO + TZP) and HBMVECs (Control, OGD/R, OGD/R + TZP). A lysis solution, composed of 1% protease inhibitor in RIPA buffer (Sigma-Aldrich, R0278), was introduced to samples, which were homogenized over ice for 30 min. The homogenate was centrifuged at 13,500 rpm for 10 min at 4 °C. Protein was quantified using the BCA assay kit (Sigma-Aldrich, BCA1), and 50 µg protein/lane was separated on 10% SDS-PAGE and transferred to PVDF in electrophoresis buffer at 200 mA for 2 h. The membrane was blocked with 5% skim milk in TBST for 1 h. […] Bands were detected via ECL (Bio-Rad, 1705061), quantified with ImageJ, and normalized to GAPDH.

[3] = system: HBMVECs; test: TEER of OGD/R-challenged HBMVECs; type: cell-based, human
Procedure: HBMVECs were sourced from ATCC (USA). These cells were cultivated in a medium specifically designed for endothelial cultures, enriched with 10% FBS, and maintained in an incubator set at a temperature of 37 °C with 5% CO2. For OGD/R modeling, the culture medium was replaced with a serum-free, glucose-free medium, and then it was placed in a hypoxic environment (1% O2, 5% CO2, 94% N2) at a 37 °C incubator for 10 h. After 10 h, the normal medium containing serum was added, and the normal oxygen supply was restored. The cells were then kept in a 37 °C constant temperature incubator for 24 h of reoxygenation. To silence C/EBP-α, HBMVECs were transduced with adenovirus harboring a short hairpin RNA (shRNA) specifically designed to knock down C/EBP-α (Ad-viral sh-C/EBP-α) for 48 h. Approximately 100,000 cells were nurtured in the upper section of the Transwell device. Once the cells had bonded to the container surfaces, TEER values across each group were determined utilizing an impedance meter (Millipore, United States) after 24 h.

[4] = TZP group (sham-operated, 10 nmol/kg i.p. weekly, 8 weeks) vs. Sham

Compound: CC[C@H](C)[C@H](NC(=O)[C@H](CC(C)C)NC(=O)[C@H](Cc1c[nH]c2ccccc12)NC(=O)[C@H](CCC(N)=O)NC(=O)[C@@H](NC(=O)[C@H](Cc1ccccc1)NC(=O)[C@H](C)NC(=O)[C@H](CCCCNC(=O)COCCOCCNC(=O)COCCOCCNC(=O)CC[C@H](NC(=O)CCCCCCCCCCCCCCCCCCC(=O)O)C(=O)O)NC(=O)[C@H](CCC(N)=O)NC(=O)[C@H](C)NC(=O)[C@@H](NC(=O)[C@H](CCCCN)NC(=O)[C@H](CC(=O)O)NC(=O)[C@H](CC(C)C)NC(=O)C(C)(C)NC(=O)[C@@H](NC(=O)[C@H](CO)NC(=O)[C@H](Cc1ccc(O)cc1)NC(=O)[C@H](CC(=O)O)NC(=O)[C@H](CO)NC(=O)[C@@H](NC(=O)[C@H](Cc1ccccc1)NC(=O)[C@@H](NC(=O)CNC(=O)[C@H](CCC(=O)O)NC(=O)C(C)(C)NC(=O)[C@@H](N)Cc1ccc(O)cc1)[C@@H](C)O)[C@@H](C)O)[C@@H](C)CC)[C@@H](C)CC)C(C)C)C(=O)N[C@@H](C)C(=O)NCC(=O)NCC(=O)N1CCC[C@H]1C(=O)N[C@@H](CO)C(=O)N[C@@H](CO)C(=O)NCC(=O)N[C@@H](C)C(=O)N1CCC[C@H]1C(=O)N1CCC[C@H]1C(=O)N1CCC[C@H]1C(=O)N[C@@H](CO)C(N)=O [TZP, Tirzepatide]
- Claudin-1 levels (mRNA) ([1]; MCAO + C/EBP-α-/- + TZP vs. MCAO + TZP): strikingly repressed
- Claudin-1 levels (mRNA) ([1]; MCAO + TZP WT mice vs. MCAO): sharply enhanced
- Claudin-1 expressions in cortex tissue (mRNA, protein by immunostaining) ([1]; MCAO + TZP vs. MCAO (markedly diminished), 10 nmol/kg i.p. weekly, 8 weeks): strikingly enhanced
- Claudin-1 expressions in cortex tissue (mRNA, protein by immunostaining) [1, 4]: remarkably enhanced
- C/EBP-α levels in cortex tissues (mRNA, protein) ([2]; MCAO + TZP vs. MCAO (markedly decreased), 10 nmol/kg i.p. weekly, 8 weeks): largely enhanced
- C/EBP-α levels in cortex tissues (mRNA, protein) [2, 4]: notably elevated
- TEER values ([3]; OGD/R + 50 nM TZP, 24 h, control 191.3, OGD/R 115.3, Fig. 6B): 145.3 Ω.cm²
- TEER values ([3]; OGD/R + 100 nM TZP, 24 h, control 191.3, OGD/R 115.3, Fig. 6B): 172.9 Ω.cm²
- TEER values ([3]; sh-C/EBP-α experiment, OGD/R + TZP (100 nM), control 187.4, OGD/R 113.5, Fig. 9C): 175.6 Ω.cm²
- TEER values ([3]; sh-C/EBP-α experiment, OGD/R + sh-C/EBP-α + TZP (100 nM), control 187.4, OGD/R 113.5, Fig. 9C): 138.2 Ω.cm²
